Assay results taken from patent US10336702B2, “Pharmaceutically active compounds” (BERGENBIO ASA, priority 2015, dated 2019).

Tests used:
[1] = system: MDA-MB-231D3H2LN/GFP-Luc mammary carcinoma cells; assay: Lung metastasis after tail vein injection of TNBC cells; assay type: in vivo, NSG mice; conditions: 25 mg/kg twice a day
Description: Mice injected with MDA-MB-231D3H2LN/GFP-Luc mammary carcinoma cells and treated with vehicle or EX67 (25 mg/kg b.i.d.) over the course of 14 days were injected with D-luciferin (150 mg/kg) IP 10 minutes before being imaged. Whole-body imaging was performed on an Optix MX2 Small Animal Molecular Imager to measure the total photon count for each animal±SEM. n=10 for vehicle and n=10 for EX67 group.
The cellular program of epithelial to mesenchymal transition (EMT) is utilized by tumor cells to metastasize. The effect of EX67 on lung metastases was evaluated in a TNBC model.
NSG mice were injected in the tail vein with 500 000 MDA-MB-231D3H2LN/GFP-Luc mammary carcinoma cells. Mice were treated with Vehicle or 25 mg/kg EX67 twice a day. Metastases to the lung were evaluated by in vivo imaging after 3 weeks. Lung metastases were also evaluated macroscopically at the day of culling (see FIG. 14).
After 14 days, lung metastases were detected in 10/10 mice treated with Vehicle and 7/10 mice treated with EX67.

Akt1 = target: T1, Akt1 (Homo sapiens, UniProt P31749); assay: Akt activation assay (PDK1-mediated activation, LANCE Ultra crosstide TR-FRET), Akt1; assay type: biochemical; conditions: read-out: Biological Assay 1 IC50 (nM) Akt1
T1 construct: unspecified tag, removed (detagged) (cleaved yes); purchased SignalChem and Proteros (Akt1); Merck Millipore (PDK1) 14-452 (PDK1); none given for Akt1
Procedure, shortened: (§1)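 Two-step cascade format: Akt1, Akt2 or Akt3 phosphorylates Ulight-crosstide (100 nM) only after activation by 5 nM PDK1 in presence of PtdIns(3,4,5)P3 vesicles and 100 μM ATP. Product quantified by Eu-antibody TR-FRET after 30 min reaction.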

p-Akt3 in WM115 cells = target: T2, p-Akt3 in WM115 cells (Homo sapiens, UniProt Q9Y243); assay: Phospho-Akt cellular SureFire assay, p-Akt3 in WM115 cells; assay type: cell-based; conditions: insulin stimulated, read-out: Biological Assay 2 IC50 (nM) Akt3 WM115
T2 construct: SureFire assays to detect cellular p-Akt1, p-Akt2 and p-Akt3 levels in WM115 cells (Akt2/3) and LNCaP cells (Akt1); endogenous in cells; host or cells: WM115 (ECACC 91061232), insulin-stimulated
Procedure, shortened: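 pThr308-Akt3 in lysates was quantified by bead-proximity SureFire detection, pairing a phospho-specific antibody with a total Akt3 antibody. Before lysis, WM115 cells in 0.1% FBS medium were treated for 15 min at 37 °C with compound (final DMSO 0.3%), following a 10 min stimulation with 100 nM insulin. IC50 was obtained by 4-parameter fitting.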

Akt2 = target: T3, Akt2 (Homo sapiens, UniProt P31751); assay: Akt activation assay (PDK1-mediated activation, LANCE Ultra crosstide TR-FRET), Akt2; assay type: biochemical; conditions: read-out: Biological Assay 1 IC50 (nM) Akt2
T3 construct: unspecified tag, removed (detagged) (cleaved yes); purchased SignalChem and Proteros (Akt2); Merck Millipore (PDK1) 14-452 (PDK1); none given for Akt2
Procedure, shortened: as §1

p-Akt2 in WM115 cells = target: T4, p-Akt2 in WM115 cells (Homo sapiens, UniProt P31751); assay: Phospho-Akt cellular SureFire assay, p-Akt2 in WM115 cells; assay type: cell-based; conditions: insulin stimulated, read-out: Biological Assay 2 IC50 (nM) Akt2 WM115
T4 construct: SureFire assays to detect cellular p-Akt1, p-Akt2 and p-Akt3 levels in WM115 cells (Akt2/3) and LNCaP cells (Akt1); endogenous in cells; host or cells: WM115 (ECACC 91061232), insulin-stimulated
Procedure, shortened: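 Readout is a bead-proximity SureFire assay pairing a pThr308 Akt antibody with a total Akt2 antibody, lysate and beads incubated 2 h plus 2 h at room temperature in the dark. Before lysis, serum-starved WM115 cells received 100 nM insulin (10 min), then test compound (15 min, 0.3% DMSO); IC50 by 4-parameter equation.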

Akt3 = target: T5, Akt3 (Homo sapiens, UniProt Q9Y243); assay: Akt activation assay (PDK1-mediated activation, LANCE Ultra crosstide TR-FRET), Akt3; assay type: biochemical; conditions: read-out: Biological Assay 1 IC50 (nM) Akt3
T5 construct: unspecified tag, removed (detagged) (cleaved yes); purchased SignalChem and Proteros (Akt3); Merck Millipore (PDK1) 14-452 (PDK1); none given for Akt3
Procedure, shortened: as §1

p-Akt1 in LNCaP cells = target: T6, p-Akt1 in LNCaP cells (Homo sapiens, UniProt P31749); assay: Phospho-Akt cellular SureFire assay, p-Akt1 in LNCaP cells; assay type: cell-based; conditions: read-out: Biological Assay 2 IC50 (nM) Akt1 LNCaP
T6 construct: SureFire assays to detect cellular p-Akt1, p-Akt2 and p-Akt3 levels in WM115 cells (Akt2/3) and LNCaP cells (Akt1); endogenous in cells; host or cells: LNCaP (ECACC 89110211)
Procedure, shortened: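 Phospho-Thr308 Akt1 detected by AlphaScreen SureFire proximity beads in LNCaP lysates after 15 min compound treatment at 37 °C in 0.1% FBS medium, unstimulated, 0.3% DMSO. Cells plated at 5×10^4/well overnight; IC50 from a 4-parameter equation.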

T3 sequence (P31751 whole entry): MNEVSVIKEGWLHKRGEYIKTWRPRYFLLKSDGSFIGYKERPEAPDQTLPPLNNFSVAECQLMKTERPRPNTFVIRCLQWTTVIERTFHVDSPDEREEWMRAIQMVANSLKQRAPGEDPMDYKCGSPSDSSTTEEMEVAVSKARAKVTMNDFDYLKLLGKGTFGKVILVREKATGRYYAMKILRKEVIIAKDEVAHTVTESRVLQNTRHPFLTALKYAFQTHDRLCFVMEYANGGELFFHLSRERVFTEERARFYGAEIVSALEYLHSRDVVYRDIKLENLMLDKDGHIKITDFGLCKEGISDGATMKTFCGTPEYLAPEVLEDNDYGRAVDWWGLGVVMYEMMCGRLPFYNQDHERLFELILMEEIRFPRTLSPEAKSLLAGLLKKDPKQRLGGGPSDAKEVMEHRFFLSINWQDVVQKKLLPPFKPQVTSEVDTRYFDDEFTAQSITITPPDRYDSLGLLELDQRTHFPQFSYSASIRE
T4 sequence (P31751 whole entry): as above
T6 sequence (P31749 whole entry): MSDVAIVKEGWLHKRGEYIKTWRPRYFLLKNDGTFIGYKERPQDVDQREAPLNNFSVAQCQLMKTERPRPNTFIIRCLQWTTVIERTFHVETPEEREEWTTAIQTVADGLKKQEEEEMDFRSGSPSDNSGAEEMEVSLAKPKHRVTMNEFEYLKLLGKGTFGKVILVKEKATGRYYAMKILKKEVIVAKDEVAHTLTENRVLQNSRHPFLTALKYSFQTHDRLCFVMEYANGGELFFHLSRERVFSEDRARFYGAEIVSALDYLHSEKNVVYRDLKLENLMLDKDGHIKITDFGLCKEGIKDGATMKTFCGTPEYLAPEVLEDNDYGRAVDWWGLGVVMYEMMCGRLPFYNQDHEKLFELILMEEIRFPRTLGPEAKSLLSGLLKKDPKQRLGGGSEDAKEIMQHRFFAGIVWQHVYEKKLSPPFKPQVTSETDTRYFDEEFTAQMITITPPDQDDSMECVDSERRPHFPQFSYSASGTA
T1 sequence (P31749 whole entry): as above
T2 sequence (Q9Y243 whole entry): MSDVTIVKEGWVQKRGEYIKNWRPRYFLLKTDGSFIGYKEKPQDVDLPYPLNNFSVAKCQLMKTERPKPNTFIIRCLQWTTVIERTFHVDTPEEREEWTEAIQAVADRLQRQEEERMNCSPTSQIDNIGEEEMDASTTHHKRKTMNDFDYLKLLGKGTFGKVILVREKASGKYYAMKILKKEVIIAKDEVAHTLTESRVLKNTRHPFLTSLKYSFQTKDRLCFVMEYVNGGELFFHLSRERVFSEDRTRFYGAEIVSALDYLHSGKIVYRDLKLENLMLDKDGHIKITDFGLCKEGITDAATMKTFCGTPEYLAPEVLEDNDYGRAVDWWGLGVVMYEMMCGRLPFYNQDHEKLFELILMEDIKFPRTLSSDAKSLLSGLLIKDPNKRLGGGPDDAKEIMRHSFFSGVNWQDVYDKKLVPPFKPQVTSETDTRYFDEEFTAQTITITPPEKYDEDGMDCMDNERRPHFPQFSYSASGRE
T5 sequence (Q9Y243 whole entry): as above

Compound	lung metastases [1]	mice with lung metastases detected ([1]; after 14 days, vehicle 10/10)	IC50 (Akt1)	IC50 (p-Akt3 in WM115 cells)	IC50 (Akt2)	IC50 (p-Akt2 in WM115 cells)	IC50 (Akt3)	IC50 (p-Akt1 in LNCaP cells)
COC(=O)N(C)[C@H]1CC[C@H](CC(=O)Nc2cc(-c3ccccc3)c(-c3ccc([C@]4(N)C[C@](C)(O)C4)cc3)cn2)CC1 [EX67]	prevented metastases compared to vehicle-treated mice in a sub-set of animals	7/10						
CCC(=O)N(C)[C@H]1CC[C@H](CC(=O)Nc2cnc(-c3ccc(C(C)(C)N)cc3)c(-c3ccccc3)c2)CC1 [Example A95, N-(trans-4-(2-((6-(4-(2-aminopropan-2-yl)phenyl)-5-phenylpyridin-3-yl)amino)-2-oxoethyl)cyclohexyl)-N-methylpropionamide]			> 30000 nM	110 nM	3300 nM	3100 nM	54 nM	> 30000 nM
CC(=O)N(C)[C@H]1CC[C@H](CC(=O)Nc2cc(-c3ccsc3)c(-c3ccc(C(C)(C)N)cc3)nn2)CC1 [Example A96, N-(6-(4-(2-aminopropan-2-yl)phenyl)-5-(thiophen-3-yl)pyridazin-3-yl)-2-(trans-4-(N-methylacetamido)cyclohexyl)acetamide]			> 30000 nM	180 nM	10000 nM	15000 nM	92 nM	> 30000 nM
C[C@]1(O)C[C@@](N)(c2ccc(-c3nnc(NC(=O)C[C@H]4CC[C@H](N5CCCCC5=O)CC4)cc3-c3ccccc3)cc2)C1 [Example A98, N-(6-(4-(trans-1-amino-3-hydroxy-3-methylcyclobutyl)phenyl)-5-phenylpyridazin-3-yl)-2-(trans-4-(2-oxopiperidin-1-yl)cyclohexyl)acetamide]			2600 nM	5 nM	53 nM	320 nM	4 nM	1900 nM
CCOC(=O)N(C)[C@H]1CC[C@H](CC(=O)Nc2cnc(-c3ccc(C(C)(C)N)cc3)c(-c3ccccc3)c2)CC1 [Example A99, Ethyl (trans-4-(2-((6-(4-(2-aminopropan-2-yl)phenyl)-5-phenylpyridin-3-yl)amino)-2-oxoethyl)cyclohexyl)(methyl)carbamate]			> 27000 nM	440 nM	3000 nM	7800 nM	130 nM	> 30000 nM
COC(=O)N(C)[C@H]1CC[C@H](CC(=O)Nc2cc(-c3ccsc3)c(-c3ccc(C4(N)CC4)c(F)c3)nn2)CC1 [Example A100, Methyl (trans-4-(2-((6-(4-(1-aminocyclopropyl)-3-fluorophenyl)-5-(thiophen-3-yl)pyridazin-3-yl)amino)-2-oxoethyl)cyclohexyl)(methyl)carbamate]			> 30000 nM	1400 nM	> 30000 nM	> 30000 nM	520 nM	> 30000 nM
CCC(=O)N(C)[C@H]1CC[C@H](CC(=O)Nc2cc(-c3ccsc3)c(-c3ccc(C4(N)CC4)c(F)c3)nn2)CC1 [Example A101, N-(trans-4-(2-((6-(4-(1-aminocyclopropyl)-3-fluorophenyl)-5-(thiophen-3-yl)pyridazin-3-yl)amino)-2-oxoethyl)cyclohexyl)-N-methylpropionamide]			> 30000 nM	350 nM	11000 nM	> 30000 nM	140 nM	> 30000 nM
CCC(=O)N(C)[C@H]1CC[C@H](CC(=O)Nc2cc(-c3ccccc3)c(-c3ccc(C4(N)CC4)c(F)c3)nn2)CC1 [Example A103, N-(trans-4-(2-((6-(4-(1-aminocyclopropyl)-3-fluorophenyl)-5-phenylpyridazin-3-yl)amino)-2-oxoethyl)cyclohexyl)-N-methylpropionamide]			> 30000 nM	730 nM	2300 nM	> 30000 nM	110 nM	> 30000 nM
COC(=O)N(C)[C@H]1CC[C@H](CC(=O)Nc2cc(-c3ccccc3)c(-c3ccc(C4(N)CC4)c(F)c3)nn2)CC1 [Example A104, Methyl (trans-4-(2-((6-(4-(1-aminocyclopropyl)-3-fluorophenyl)-5-phenylpyridazin-3-yl)amino)-2-oxoethyl)cyclohexyl)(methyl)carbamate]			> 30000 nM	1000 nM	5600 nM	> 30000 nM	200 nM	> 30000 nM
COC(=O)N(C(C)C)[C@H]1CC[C@H](CC(=O)Nc2cc(-c3ccccc3)c(-c3ccc([C@]4(N)C[C@](C)(O)C4)cc3)cn2)CC1 [Example A105, Methyl (trans-4-(2-((5-(4-(trans-1-amino-3-hydroxy-3-methylcyclobutyl)phenyl)-4-phenylpyridin-2-yl)amino)-2-oxoethyl)cyclohexyl)(isopropyl)carbamate]			> 15000 nM	300 nM	220 nM	5100 nM	20 nM	9000 nM
CCC(=O)N(C(C)C)[C@H]1CC[C@H](CC(=O)Nc2cc(-c3ccccc3)c(-c3ccc([C@]4(N)C[C@](C)(O)C4)cc3)cn2)CC1 [Example A107, N-(trans-4-(2-((5-(4-(trans-1-amino-3-hydroxy-3-methylcyclobutyl)phenyl)-4-phenylpyridin-2-yl)amino)-2-oxoethyl)cyclohexyl)-N-isopropylpropionamide]			8100 nM	76 nM	230 nM	2200 nM	23 nM	7100 nM
N-(6-(4-(trans-1-amino-3-hydroxy-3-methylcyclobutyl)phenyl)-5-phenylpyridin-3-yl)-2-(trans-4-(N-ethylacetamido)cyclohexyl)acetamide [Example 119]			5900 nM	22 nM	70 nM	410 nM	5 nM	2300 nM
